Where a SMILES comes first, the peptide text is derived from it. Bridges are numbered along the chain shown (N, C = ends). Where no end group is shown, it is not given here.
Experiments:
CD28-Fc = assay: Spot phage ELISA, CD28-Fc; format: binding; conditions: for ELISA: spot phage ELISA signal of phage-displayed DCP clone on CD28-Fc; for S/N: spot phage ELISA signal-to-noise on CD28-Fc
Her3-Fc = molecular target: T1, Her3-Fc (Homo sapiens, UniProt P21860); assay: Spot phage ELISA, Her3-Fc; format: binding; conditions: for S/N: ratio of signal for target protein over BSA background; for ELISA: spot phage ELISA signal, DCP displayed on M13 p8
T1 construct: purchased R&D 348-RB

trypsin = assay: Phage ELISA of displayed DCPs on immobilized trypsin; conditions: DCP displayed on M13 p3 or p8, phage ELISA on trypsin-coated plates (Fig 1)
Procedure: The DCPs, incorporating an N-terminal gD-tag for quantification of display levels, were fused at the C-terminal to the major M13 coat protein p8 or the C-terminal domain of minor coat protein p3 (Fig 1A).
The display level was analyzed using phage ELISA described previously [47].

HGFA = assay: Spot phage ELISA, HGFA; format: binding, human; conditions: for S/N: ratio of signal for target protein over BSA background, S/N > 2 positive; for ELISA: spot phage ELISA signal, DCP displayed on M13 p8, phage supernatant 1:3 in PBT, anti-M13-HRP, TMB
R-spondin = assay: Spot phage ELISA, R-spondin; format: binding, human; conditions: for S/N: ratio of signal for target protein over BSA background; for ELISA: spot phage ELISA signal, DCP displayed on M13 p8
Notch2Long = assay: Spot phage ELISA, Notch2Long; format: binding, human; conditions: for ELISA: spot phage ELISA signal

T1 sequence (P21860 20-643 limits assumed): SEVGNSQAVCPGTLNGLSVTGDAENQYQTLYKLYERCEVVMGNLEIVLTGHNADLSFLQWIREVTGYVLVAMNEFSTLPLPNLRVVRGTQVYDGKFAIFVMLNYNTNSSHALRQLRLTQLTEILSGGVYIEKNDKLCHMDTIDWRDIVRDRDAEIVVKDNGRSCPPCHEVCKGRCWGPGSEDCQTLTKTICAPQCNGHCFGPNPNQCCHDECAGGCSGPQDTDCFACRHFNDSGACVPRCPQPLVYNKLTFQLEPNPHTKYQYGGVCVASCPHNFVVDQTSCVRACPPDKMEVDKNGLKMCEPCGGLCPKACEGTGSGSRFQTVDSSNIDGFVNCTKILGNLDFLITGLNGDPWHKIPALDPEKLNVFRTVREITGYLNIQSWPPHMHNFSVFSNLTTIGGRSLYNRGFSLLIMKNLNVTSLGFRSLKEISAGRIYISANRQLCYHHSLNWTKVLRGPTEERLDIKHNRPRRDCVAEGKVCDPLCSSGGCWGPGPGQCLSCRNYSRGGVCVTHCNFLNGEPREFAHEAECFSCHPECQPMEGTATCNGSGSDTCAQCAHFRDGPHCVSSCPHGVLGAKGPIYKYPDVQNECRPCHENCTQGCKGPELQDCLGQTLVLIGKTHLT

Compound	ELISA (CD28-Fc)	S/N (CD28-Fc)	S/N (Her3-Fc)	other results
GCFENWATCKQDSDCLAGCVCKIWKRCG (disulfide (positions not given here)) [CD28-Fc EET I-II 5]	1.34	19.6		
GCMNWGTFCKQDSDCLAGCVCALFGVCG (also: bicyclic or more (positions not given here)) [Her3-Fc EET I-II 66]			27.8	ELISA (Her3-Fc): 1.59
GCPRILKRCKRDSDCLAGCVCRGNGFCG (also: bicyclic or more (positions not given here)) [EETI-mut]				phage binding to immobilized trypsin (trypsin): significantly disrupted
GCIWGWAACKQDSDCLAGCVCQIWGRCG (disulfide (positions not given here)) [CD28-Fc EET I-II 3]	1.58	10.7		
GCYTFWHKCKQDSDCLAGCVCLIWGRCG (disulfide (positions not given here)) [CD28-Fc EET I-II 11]	1.50	19.0		
GCQWDWWMEEWWCKQDSDCLAGCVCGPNGFCG (also: bicyclic or more (positions not given here)) [HGFA EET I-II 14]				S/N (HGFA): 15.2; ELISA (HGFA): 1.75
GCPRILMRCKQDSDCLAGCVCSGPPPCG (also: bicyclic or more (positions not given here)) [Her3-Fc EET I-II 7]			24.5	ELISA (Her3-Fc): 1.60
AFDCLGQCVPYVLSPYCNSSCTR [Her3-Fc AVR9 6]			24.2	ELISA (Her3-Fc): 1.56
GCFWKRVHLCKQDSDCLAGCVCGWEASCG (disulfide (positions not given here)) [CD28-Fc EET I-II 15]	1.64	31.6		
GCYWKRQFKCKQDSYCLPGCVCGWEMSCG (disulfide (positions not given here)) [CD28-Fc EET I-II 16]	1.80	8.4		
GCEWDWWFDQWICKQDSDCLAGCVCGPNGFCG (also: bicyclic or more (positions not given here)) [HGFA EET I-II 16]				S/N (HGFA): 14.5; ELISA (HGFA): 1.92
GCLASHPWWSVWCKQDSDCLAGCVCQEMGICG (also: bicyclic or more (positions not given here)) [R-spondin EETI-II 31]				S/N (R-spondin): 11.4; ELISA (R-spondin): 0.72
GCAESQHWWLWGCKQDSDCLAGCVCGPNGFCG (also: bicyclic or more (positions not given here)) [HGFA EET I-II 31]				S/N (HGFA): 22.4; ELISA (HGFA): 1.95
GPTQSWQGRCGGIGYSGPTVCASGTTCQVLTPYWSECLPGAS (disulfide 10-27, 21-37 (inferred)) [Her3-Fc_CBD1]			20.2	ELISA (Her3-Fc; listed as Her3-Fc CBD 3): 1.65
GCPRILMRCKQDSDCLSGCVCSGPPPCG (also: bicyclic or more (positions not given here)) [Her3-Fc EET I-II 24]			16.6	ELISA (Her3-Fc): 1.61
GCHYNWDQCKQDSDCLAGCVCLIWYRCD (disulfide (positions not given here)) [CD28-Fc EET I-II 12]	1.06	20.1		
GCMWDWDACKQDSDCLAGCVCSIWGRCG (disulfide (positions not given here)) [CD28-Fc EET I-II 2]	1.29	10.9		
GCDLDLDWIWHECKQDSDCLAGCVCHQGNFCG (also: bicyclic or more (positions not given here)) [Her3-Fc EET I-II 9]			25.7	ELISA (Her3-Fc): 1.44
SGSDGGVCPKILKKCRRDSDCPGACICRGNGYCG (also: bicyclic or more (positions not given here)) [MCoTI-II]				phage binding to immobilized trypsin (trypsin): showed binding signals
GCDPWIWQEWGVCKQDSDCLAGCVCGPNGFCG (also: bicyclic or more (positions not given here)) [R-spondin EETI-II 47]				S/N (R-spondin): 13.7; ELISA (R-spondin): 1.06
GCQSHYSHQGCKQDSDCLAGYCG [Her3-Fc EET I-II 11]			26.1	ELISA (Her3-Fc): 1.65

Compound	ELISA (CD28-Fc)	S/N (CD28-Fc)	S/N (Her3-Fc)	other results
GCPRILMRCKQDSDCLAGCVCAGPPPCG (also: bicyclic or more (positions not given here)) [Her3-Fc EET I-II 42]			23.8	ELISA (Her3-Fc): 1.52
GCHPDPWWCKQDSDCLARWCG [Her3-Fc EET I-II 37]			43.4	ELISA (Her3-Fc): 3.17
GCVWNWVECKQDSDCLAGCVCYIWGRCG (disulfide (positions not given here)) [CD28-Fc EET I-II 1]	1.59	15.4		
GCMEHWEYCKQDSDCLAGCVCVIWGRCG (disulfide (positions not given here)) [CD28-Fc EET I-II 13]	1.52	27.2		
GCISKWFSCKQDSDCLAGCVCLLWQDCG (also: bicyclic or more (positions not given here)) [Her3-Fc EET I-II 67]			20.1	ELISA (Her3-Fc): 1.54
GCMYHWEACKQDSDCLAGCICHIWIPCG (disulfide (positions not given here)) [CD28-Fc EET I-II 8]	1.07	16.4		
GCWEKRKMCKQDSDCLAGCVCGWEISCG (disulfide (positions not given here)) [CD28-Fc EET I-II 14]	1.35	22.9		
GCALSIHWWLWPCKQDSDCLAGCVCGPNGFCG (also: bicyclic or more (positions not given here)) [HGFA EET I-II 20]				S/N (HGFA): 13.5; ELISA (HGFA): 1.93
GCYWDSWFDEWVCKQDSDCLAGCVCGPNGFCG (also: bicyclic or more (positions not given here)) [HGFA EET I-II 59]				S/N (HGFA): 13.4; ELISA (HGFA): 1.67
CC[C@H](C)[C@@H]1NC(=O)[C@@H]2CCCN2C(=O)[C@H](CCC(=O)O)NC(=O)[C@@H]2CSSC[C@@H]3NC(=O)[C@H](Cc4c[nH]cn4)NC(=O)[C@H](Cc4c[nH]c5ccccc45)NC(=O)[C@H](CC(C)C)NC(=O)[C@H]([C@@H](C)O)NC(=O)[C@H](Cc4c[nH]c5ccccc45)NC(=O)CNC(=O)[C@@H](NC(=O)CN)CSSC[C@H](NC(=O)CNC(=O)[C@H](C)NC(=O)[C@H](CC(C)C)NC(=O)[C@H](CSSC[C@@H](C(=O)NCC(=O)O)NC(=O)[C@H](Cc4c[nH]c5ccccc45)NC(=O)[C@H](Cc4c[nH]c5ccccc45)NC1=O)NC(=O)[C@H](CC(=O)O)NC(=O)[C@H](CO)NC(=O)[C@H](CC(=O)O)NC(=O)[C@H](CCC(N)=O)NC(=O)[C@H](CCCCN)NC3=O)C(=O)N[C@@H](C(C)C)C(=O)N2 [N2L-EET-03] (HELM PEPTIDE1{G.C.G.W.T.L.W.H.C.K.Q.D.S.D.C.L.A.G.C.V.C.E.P.I.W.W.C.G}$PEPTIDE1,PEPTIDE1,2:R3-19:R3|PEPTIDE1,PEPTIDE1,9:R3-21:R3|PEPTIDE1,PEPTIDE1,15:R3-27:R3$$$V2.0; N-terminus and C-terminus assumed)				s/n ratio (Notch2Long; Table 3, affinity maturation clones, signal over BSA background): 3.1; ELISA (Notch2Long; Table 3, affinity maturation clones, display (p8 or p3) not given per clone): 0.4; S/N (Notch2Long; initial hits, ratio of signal for target protein over BSA background): 3.1; ELISA (Notch2Long; initial hits, DCP displayed on M13 p8): 0.35
GLPVCGETCVGGTCNTPGCTCSWPVCTRN (also: bicyclic or more (positions not given here)) [kalata B1]				phage binding to immobilized trypsin (trypsin): did not exhibit any binding signal
GCDEYWYECKQDSDCLAGCVCLIWGHCG (disulfide (positions not given here)) [CD28-Fc EET I-II 7]	1.32	20.3		
GCTQDWKTCKQDSDCLAGCVCVIWGRCG (disulfide (positions not given here)) [CD28-Fc EET I-II 6]	1.44	21.2		
GCMMYWDECKQDSDCLAGCVCLIWNRCG (disulfide (positions not given here)) [CD28-Fc EET I-II 4]	1.85	34.2		
GPSHSQYCHCGGIGYVGGHYCSCTNYQDEWGFESRCLPGAS [HGFA CBD 9]				S/N (HGFA): 25.0; ELISA (HGFA): 1.80
GCPRILIRCKQDSDCLAGCVCSGPPPCG (also: bicyclic or more (positions not given here)) [Her3-Fc EET I-II 47]			22.4	ELISA (Her3-Fc): 1.64
GCYQKRVQCKQDSDCLAGCVCGWEAQCG (disulfide (positions not given here)) [CD28-Fc EET I-II 10]	1.41	15.0		
GCWSSEKGLACKQDSDCLAGCVCDQTGSCG (also: bicyclic or more (positions not given here)) [Her3-Fc EET I-II 52]			23.0	ELISA (Her3-Fc): 1.65
GCQWIAHWWLWDCKQDSDCLAGCVCGPNGFCG (also: bicyclic or more (positions not given here)) [HGFA EET I-II 86]				S/N (HGFA): 22.6; ELISA (HGFA): 1.92
GCQLHYSQQGCKQYSULSGLVLWYTIHRLLRWRI [Her3-Fc EET I-II 4]			21.1	ELISA (Her3-Fc): 1.45
GCYLKRRHCKQDSDCLAGCVCGWEHTCG (disulfide (positions not given here)) [CD28-Fc EET I-II 9]	1.52	23.4		

Source: publication PMC10977697 (PLOS ONE, 2024)
